Assay results from patent publication US20050013835A1, “Stable non-dihydrate azithromycin oral suspensions” (Pfizer Inc., priority 2003, published 2005).
Where two headings read alike, the source gives them in different places. Each block holds one compound with its values, some of them ahead of it.

Experiments:
[1] = Stability of non-dihydrate azithromycin in constituted suspension: conversion to dihydrate (form A) quantified by SS-NMR; assay type: physicochemical; conditions: for rate of conversion to azithromycin dihydrate in POS formulation II suspension as compared to bulk drug suspended in deionized water: 5° C. or 30° C., 1 to 10 days
Protocol: These POS formulations were created by individually weighing each formulation component into a 60-cc High Density Polyethylene (HDPE) bottle with closure. The resulting formulations were then dry-mixed with a Turbula blender (Glen Mills Inc. Maywood, N.J.) for 5 minutes. The powder blends were then constituted with 18 mls of water, shaken for 30 seconds and stored without agitation under controlled temperature conditions.
Upon conclusion of the storage time period the suspensions were filtered and suspended solids collected as described previously.

[2] = Effect of sucrose vehicle viscosity on conversion in flavoring-free form G suspensions (SS-NMR); assay type: physicochemical; conditions: 820 mg form G, no flavoring, room temperature
Protocol: (§1) Upon conclusion of the storage time period the POS samples were filtered using a Buchner funnel in combination with a standard vacuum filtration apparatus. A Millipore prefilter (AP25, 47 mm) was fitted onto the funnel for the collection of suspended solids. Before filtering, the constituted POS sample was poured into a 200 ml volumetric flask and diluted to 200 ml with water. This lowered the viscosity of the sample, facilitating a quick filtration step. With the vacuum on, the diluted POS samples were poured onto the Millipore prefilter. The isolated filtrate remaining on top of the prefilter was then allowed to stand for 2-minutes in order to dry. Vacuum was applied to the filtration apparatus during this drying step. Suspensions containing only bulk drug were transferred directly onto the filter paper upon completion of storage, without the described dilution step during sample preparation. After drying, the collected filtrate was placed into 4 cc Sunbroker vials and analyzed via Solid-State Nuclear Magnetic Resonance (SS-NMR) for quantification of conversion to azithromycin dihydrate (form A).
(§2) Approximately 300 mg of sample were tightly packed into a 7 mm ZrO spinner for each sample analyzed. One-dimensional ^13C spectra were collected at ambient pressure using ^1H-^13C cross-polarization magic angle spinning (CPMAS) at 295 K on a Bruker 7 mm BL CPMAS probe positioned into a wide-bore Bruker Avance DSX 500 MHz NMR spectrometer (Bruker BioSpin Corporation; Billerica, Mass.). The samples were spun at 7000 Hz corresponding to the maximum specified spinning speed for the 7 mm spinners. The fast spinning speed minimized the intensities of the spinning side bands. To optimize the signal sensitivity, the cross-polarization contact time was adjusted to 2.3 ms and the decoupling power was set to 65 kHz. Typically, a total of 600 scans were acquired, resulting in approximately a 30 minute acquisition time. The spectra were referenced using an external sample of adamantane with its most upfield resonance set to 29.5 ppm.
(§3) Eight pairs of resolved peaks were identified to calibrate ratios of form A in the presence of form G, N, M or F. Integral intensities of all peaks were used as input for the calibration procedure using five different binary mixtures ranging from 3 to 81% of form A with each non-dihydrate form. From this, one non-linear calibration graph was generated for each pair of peaks and each form. For the experimental samples, only the peaks that were totally void from excipient overlap were preferentially integrated. The unknown percentages of form A were then determined from the appropriate calibration graphs. The final result for each sample analyzed was calculated as a weighted average of the determinations from each resolved peak pair.
(§4) Viscosifying agents were incorporated into POS formulations in the absence of conversion enhancers, such as flavoring components. Specifically, a series of viscous media was prepared by dissolving various amounts of either sucrose or sorbitol in a 0.22 M phosphate buffer solution. Each solution was then adjusted with sodium hydroxide to bring the mixture to a pH of 7.8. The viscosity of each constitution media was measured using a Brookfield digital viscometer (model DV-II) equipped with a 13R sample chamber and #18 spindle. A heating jacket was also used to maintain the 8 ml sample volume to a temperature of 21° C. during measurements. 18 mls of each viscous media were then used to constitute 820 mg of form G azithromycin. The resulting suspensions were stored at room temperature for both 5 and 10-days. Upon conclusion of the storage time period the constituted samples were filtered and analyzed by SS-NMR for quantitation of dihydrate species present.

[3] = Effect of sorbitol vehicle viscosity on conversion in flavoring-free form G suspensions (SS-NMR); assay type: physicochemical; conditions: 820 mg form G, no flavoring, room temperature
Protocol: as §1, §2, §3, §4

[4] = Addition of polymeric and surfactant components to slow form F conversion in formulation II (SS-NMR); assay type: physicochemical; conditions: additive level 1 % w/v, 18 ml water, 24 hours room temperature
Protocol: as §1, with “Vacuum was applied to the filtration apparatus during this drying step. Suspensions containing only bulk drug were transferred directly onto the filter paper upon completion of storage, without the described dilution step during sample preparation.” left out
(§5) Approximately 300 mg of sample were tightly packed into a 7 mm ZrO spinner for each sample analyzed. […]
(§6) Eight pairs of resolved peaks were identified to calibrate ratios of form A in the presence of form G, N, M or F. Integral intensities of all peaks were used as input for the calibration procedure using five different binary mixtures ranging from 3 to 81% of form A with each non-dihydrate form. […] The unknown percentages of form A were then determined from the appropriate calibration graphs. […]

[5] = Literature value (Johnson, Kreuter and Zografi, Colloids and Surfaces 17 (1986) 325-342); cited from earlier work
[6] = Addition of polymeric and surfactant components to slow form M conversion in formulation II (SS-NMR); assay type: physicochemical; conditions: additive level 1 % w/v, 18 ml water, 24 hours room temperature
Protocol: as §1, with “Vacuum was applied to the filtration apparatus during this drying step. Suspensions containing only bulk drug were transferred directly onto the filter paper upon completion of storage, without the described dilution step during sample preparation.” left out
as §5, §6

[7] = Surface tension of aqueous additive solution (Wilhelmy plate or literature); assay type: physicochemical; conditions: aqueous solution at the concentration used in the suspension (1 % w/v), Kruss Tensiometer, Wilhemy plate, room temperature
[8] = Effect of individual flavorings and sucrose on conversion of form G to form A in pH 8.16 buffer (SS-NMR); assay type: physicochemical; conditions: 820 mg form G + 200 mg flavoring or sucrose, 18 ml pH 8.16 buffer, room temperature
[9] = Bulk drug in 18 ml water, 5° C., day 1
[10] = Bulk drug in 18 ml water, 5° C., day 10
[11] = Bulk drug in 18 ml water, 30° C., day 1
[12] = Bulk drug in 18 ml water, 30° C., day 10
[13] = Formulation II constituted with 18 ml water, 5° C., day 1
[14] = Formulation II constituted with 18 ml water, 5° C., day 10
[15] = Formulation II constituted with 18 ml water, 30° C., day 1
[16] = Formulation II constituted with 18 ml water, 30° C., day 10
[17] = 18 ml 0.0 mg/ml sucrose solution pH 7.8, viscosity 1.2 cP
[18] = 18 ml 0.8 mg/ml sucrose solution pH 7.8, viscosity 10.2 cP
[19] = 18 ml 1.1 mg/ml sucrose solution pH 7.8, viscosity 20.2 cP
[20] = 18 ml 1.4 mg/ml sucrose solution pH 7.8, viscosity 41.7 cP
[21] = 18 ml 1.8 mg/ml sucrose solution pH 7.8, viscosity 105.0 cP
[22] = Bulk drug in 18 ml water, 5° C., day 5
[23] = Bulk drug in 18 ml water, 30° C., day 5
[24] = Formulation II constituted with 18 ml water, 5° C., day 5
[25] = Formulation II constituted with 18 ml water, 30° C., day 5
[26] = 18 ml 0.0 mg/ml sorbitol solution pH 7.8, viscosity ˜1 cP
[27] = 18 ml 1.02 mg/ml sorbitol solution pH 7.8, viscosity 3.4 cP
[28] = 18 ml 1.54 mg/ml sorbitol solution pH 7.8, viscosity 21.0 cP
[29] = 18 ml 2.04 mg/ml sorbitol solution pH 7.8, viscosity 130.9 cP

- rate of conversion to azithromycin dihydrate in POS formulation II suspension as compared to bulk drug suspended in deionized water [1]: much greater rates
- % A [1, 9]: 0%
- % A [1, 10]: 0%
- % A [1, 11]: 0%
- % A [1, 12]: 0%
- % A [1, 13]: 6%
- % A [1, 14]: 27%
- % A [1, 15]: 19%
- % A [1, 16]: 31%
Compound: CCC1OC(=O)C(C)C(O[C@H]2C[C@@](C)(OC)[C@@H](O)C(C)O2)C(C)[C@@H](OC2OC(C)CC(N(C)C)[C@H]2O)[C@@](C)(O)C[C@@H](C)CN(C)[C@H](C)[C@@H](O)[C@]1(C)O (some centres unmarked) [Form F, azithromycin monohydrate hemi-ethanol solvate]

- 5-day Storage (% Form A) [2, 17]: 20%
- 10-day Storage (% Form A) [2, 17]: 55%
- 5-day Storage (% Form A) [2, 18]: 5%
- 10-day Storage (% Form A) [2, 18]: 12%
- 5-day Storage (% Form A) [2, 19]: 5%
- 10-day Storage (% Form A) [2, 19]: 6%
- 5-day Storage (% Form A) [2, 20]: 1%
- 10-day Storage (% Form A) [2, 20]: 3%
- 5-day Storage (% Form A) [2, 21]: 0%
- 10-day Storage (% Form A) [2, 21]: 0%
- rate of conversion to azithromycin dihydrate in POS formulation II suspension as compared to bulk drug suspended in deionized water [1]: much greater rates
- % A [1, 9]: 1%
- % A [1, 22]: 6%
- % A [1, 10]: 12%
- % A [1, 11]: 3%
- % A [1, 23]: 26%
- % A [1, 12]: 73%
- % A [1, 13]: 72%
- % A [1, 24]: 75%
- % A [1, 14]: 78%
- % A [1, 15]: 82%
- % A [1, 25]: 74%
- % A [1, 16]: 76%
- 5-day Storage (% Form A) [3, 26]: 35%
- 10-day Storage (% Form A) [3, 26]: 100%
- 5-day Storage (% Form A) [3, 27]: 7%
- 10-day Storage (% Form A) [3, 27]: 7%
- 5-day Storage (% Form A) [3, 28]: 0%
- 10-day Storage (% Form A) [3, 28]: 0%
- 5-day Storage (% Form A) [3, 29]: 0%
- 10-day Storage (% Form A) [3, 29]: 0%
Compound: CC[C@H]1OC(=O)[C@H](C)[C@@H](O[C@H]2C[C@@](C)(OC)[C@@H](O)[C@H](C)O2)[C@H](C)[C@@H](O[C@@H]2O[C@H](C)C[C@H](N(C)C)[C@H]2O)[C@](C)(O)C[C@@H](C)CN(C)[C@H](C)[C@@H](O)[C@]1(C)O [Form G, azithromycin sesquihydrate]

- % A [1, 13]: 0%
- % A [1, 14]: 0%
- % A [1, 15]: 0%
- % A [1, 16]: 0%
Compound: CCC1OC(=O)C(C)C(O[C@H]2C[C@@](C)(OC)[C@@H](O)C(C)O2)C(C)[C@@H](OC2OC(C)CC(N(C)C)[C@H]2O)[C@@](C)(O)C[C@@H](C)CN(C)[C@H](C)[C@@H](O)[C@]1(C)O (some centres unmarked) [Form J, azithromycin monohydrate hemi-n-propanol solvate]
- rate of conversion to azithromycin dihydrate in POS formulation II suspension as compared to bulk drug suspended in deionized water [1]: did not exhibit a greater conversion rate

- rate of conversion to azithromycin dihydrate in POS formulation II suspension as compared to bulk drug suspended in deionized water [1]: much greater rates
- % A [1, 9]: 0%
- % A [1, 22]: 0%
- % A [1, 10]: 0%
- % A [1, 11]: 0%
- % A [1, 23]: 0%
- % A [1, 12]: 0%
- % A [1, 13]: 23%
- % A [1, 24]: 38%
- % A [1, 14]: 40%
- % A [1, 15]: 28%
- % A [1, 25]: 36%
- % A [1, 16]: 62%
Compound: CCC1OC(=O)C(C)C(O[C@H]2C[C@@](C)(OC)[C@@H](O)C(C)O2)C(C)[C@@H](OC2OC(C)CC(N(C)C)[C@H]2O)[C@@](C)(O)C[C@@H](C)CN(C)[C@H](C)[C@@H](O)[C@]1(C)O (some centres unmarked) [Form M, azithromycin monohydrate hemi-isopropanol solvate]

Compound: CCCCCCCCOC(=O)CC(C(=O)OCCCCCCCC)S(=O)(=O)O.[Na] (centres unmarked) [Sodium Dioctyl Sulfosuccinate]
- % Conversion to Form A Relative to the Control Sample [4]: 0%
- Surface Tension [5]: 25.6^1 dyne/cm
- % Conversion to Form A Relative to the Control Sample [6]: 0%

Compound: CCCCCCCCCCCCOS(=O)(=O)[O-].[Na+] [Sodium Lauryl Sulfate]
- Surface Tension [7]: 35.8^2 dyne/cm
- % Conversion to Form A Relative to the Control Sample [4]: 0%
- % Conversion to Form A Relative to the Control Sample [6]: 0%

- Δ % Form A ([8]; constituted 1 day): 2%
- Δ % Form A ([8]; constituted 5 days): 1%
- Δ % Form A ([8]; constituted 10 days): 6%
- Δ % Form A ([8]; constituted 10 days, listed as sucrose): only minimal conversion to form A
Compound: OC[C@H]1O[C@@](CO)(O[C@H]2O[C@H](CO)[C@@H](O)[C@H](O)[C@H]2O)[C@@H](O)[C@@H]1O [Sucrose]
